The text below walks through data of patent US9023851B2 (Merck Patent GmbH, priority 2010, dated 2015).

Usually IC50 stands for the concentration at which inhibition is half-maximal.

Test [1] concerns the target T1, Syk (Homo sapiens, UniProt P43405).
T1 construct: purchased BPS Bioscience, CA, USA
The experiment in a line: Syk enzyme assay (flash plate / Caliper mobility shift). The test is classed as biochemical. As for the experimental part:
The kinase assay is performed either as 384-well Flashplate assay (for e.g. Topcount measurement) or as 384-well Image-Flashplate assay (for LEADseeker measurement).
2.5 nM SYK, 400 nM Biotin-Aha-Aha-[…] and 10 μM ATP (spiked with 0.3 μCi 33P-ATP/well) are incubated in a total volume of 50 μl (60 mM Hepes, 10 mM MgCl2, 1.2 mM Dithiothreitol, 0.02% Brij35, 0.1% BSA, pH 7.5) with or without test compound for 1 hours at 30° C. The reaction is stopped with 25 μl 200 mM EDTA. After 30 Min at 30° C. the liquid is removed and each well washed thrice with 100 μl 0.9% sodium chloride solution. Non-specific reaction is determined in presence of 0.1 μM Staurosporine. Radioactivity is measured with Topcount (when using Flashplates) or with LEADseeker (when using Image-Flashplates) respectively. Results (e.g. IC50-values) are calculated with program tools provided by the IT-department (e.g. Symyx Assay Explorer, Genedata Screener).
(§1) Enzymatic Assays Using the Caliper LifeSciences Technology
(§2) The assays described here are performed on the Caliper Life Sciences LC3000 system This technology provides data on enzyme activity via measurement of the relative amounts of phosphorylated or unphosphorylated fluorescently labelled substrate peptide at the end of an enzymatic reaction. These different states of peptide are resolved by applying a potential difference across the sample. The presence of the charged phosphate group on the product (as opposed to the substrate) causes a different peptide mobility between the two peptides. This is visualized by excitation of the fluorescent label on the substrate and product peptides and represented as peaks within the analysis software.
(§3) In order to measure inhibitor activity of kinase inhibitors on this technology, a TTP Mosquito liquid handling instrument is used to place 0.25 ul of the appropriate concentration of inhibitor in 100% DMSO (for a dose response curve calculation) into each well of a 384-well plate. To this reaction components are added to a final volume of 25 ul. The table below indicates the sequences and concentrations for the assays described in this report. Standard components are 1 mM DTT (Sigma, D0632), 1 mM MgCl2 (Sigma, M1028), 100 mM HEPES pH 7.5 (Calbiochem, 391338), 0.015% Brij-35 (Sigma, B4184).
(§4) The reaction is incubated for 90 min at 25 C, and then stopped by the addition of 70 ul of Stop buffer (100 mM HEPES pH 7.5, 0.015% Brij-35, 10 mM EDTA (Sigma, E7889)).
(§5) The plate is read on a Caliper LC 3000 in an Off-Chip mobility shift assay format, on a 12-sipper chip. Unphosphorylated substrate and phosphorylated product peptide resolve as separate peaks allowing direct measurement of percentage of conversion of substrate to product. The percent conversion can be plotted against concentration of inhibitor to produce a sigmoidal dose response curve, from which an IC50 can be calculated using GeneData Condoseo or a similar product. Cellular activity assays

The target in test [2] is T2, ZAP-70 (Homo sapiens, UniProt P43403).
T2 construct: purchased BPS Bioscience, CA, USA
T2 sequence (P43403 1-619): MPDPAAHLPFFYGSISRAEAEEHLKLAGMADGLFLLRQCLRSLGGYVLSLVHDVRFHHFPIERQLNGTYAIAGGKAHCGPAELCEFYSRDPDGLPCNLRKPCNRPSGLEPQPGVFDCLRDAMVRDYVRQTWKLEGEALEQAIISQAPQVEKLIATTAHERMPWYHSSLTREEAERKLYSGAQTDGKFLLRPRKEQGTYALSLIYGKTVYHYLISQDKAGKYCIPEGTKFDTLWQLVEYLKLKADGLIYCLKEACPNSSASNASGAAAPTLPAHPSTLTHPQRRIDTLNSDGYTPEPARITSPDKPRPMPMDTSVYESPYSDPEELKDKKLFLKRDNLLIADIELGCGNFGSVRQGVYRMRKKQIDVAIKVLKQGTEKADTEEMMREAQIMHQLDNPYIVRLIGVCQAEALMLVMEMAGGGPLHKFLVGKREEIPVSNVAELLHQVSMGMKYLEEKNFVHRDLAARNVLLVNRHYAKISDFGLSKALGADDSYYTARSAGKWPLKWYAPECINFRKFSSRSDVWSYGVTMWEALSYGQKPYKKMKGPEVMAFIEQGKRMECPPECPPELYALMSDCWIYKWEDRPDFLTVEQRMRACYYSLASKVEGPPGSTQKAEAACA
The experiment in a line: Zap70 enzymatic assay (Caliper LifeSciences technology). Type of test: biochemical. As for the experimental part:
as §1, §2, §3, §4, §5

The structures appear in SMILES notation.

With `COc1cc(OC)cc(-c2nccn3nc(Nc4ccccc4)nc23)c1` [Example C18, [8-(3,5-Dimethoxy-phenyl)-[1,2,4]triazolo[1,5-a]pyrazin-2-yl]-phenyl-amine], the IC50 in test [1] is less than 0.3 µM; in test [2], 3 to 50 µM. In the same order, the values of `Clc1nccn2nc(Nc3ccccc3)nc12` [Example B5, 8-Chloro-[1,2,4]triazolo[1,5-a]pyrazin-2-yl-phenyl-amine] are 3 to 50 µM and 3 to 50 µM. For `COCCCNc1nccn2nc(Nc3cccc(C(F)(F)F)c3)nc12` [Example C44, N^8-(3-Methoxy-propyl)-N^2-(3-trifluoromethyl-phenyl)-[1,2,4]triazolo[1,5-a]pyrazine-2,8-diamine] the same measures were 3 to 50 µM and 3 to 50 µM. Consider `COc1cc(Nc2nccn3nc(Nc4ccc(Sc5nccn5C)c(Cl)c4)nc23)cc(OC)c1` [Example C78, N^2-[3-Chloro-4-(1-methyl-1H-imidazol-2-ylsulfanyl)-phenyl]-N^8-(3,5-dimethoxy-phenyl)-[1,2,4]triazolo[1,5-a]pyrazine-2,8-diamine], for which the IC50 in test [1] and in test [2] was 3 to 50 µM throughout.

In turn, `c1ccc(Cn2ncc3ccc(Nc4nc5c(Nc6ccccc6)nccn5n4)cc32)cc1` [Example C85, N^2-(1-Benzyl-1H-indazol-6-yl)-N^8-phenyl-[1,2,4]triazolo[1,5-a]pyrazine-2,8-diamine] showed an IC50 in test [2] of 0.3 to 3 µM. Regarding `COc1cc(Nc2nccn3nc(Nc4cccc(C(F)(F)F)c4)nc23)cc(OC)c1` [Example C87, N^8-(3,5-Dimethoxy-phenyl)-N^2-(3-trifluoromethyl-phenyl)-[1,2,4]triazolo[1,5-a]pyrazine-2,8-diamine], the IC50 in test [2] was in the range of 3 to 50 µM. With `COc1cc(Nc2nccn3nc(Nc4ccc5cnn(Cc6ccccc6)c5c4)nc23)cc(OC)c1` [Example C82, N^2-(1-Benzyl-1H-indazol-6-yl)-N^8-(3,5-dimethoxy-phenyl)-[1,2,4]triazolo[1,5-a]pyrazine-2,8-diamine], the IC50 in test [2] was 3 to 50 µM. Take `c1ccc(Cn2ncc3ccc(Nc4nc5c(-c6cccnc6)nccn5n4)cc32)cc1` [Example C27, (1-Benzyl-1H-indazol-6-yl)-(8-pyridin-3-yl-[1,2,4]triazolo[1,5-a]pyrazin-2-yl)-amine]: the IC50 in test [1] was 0.3 to 3 µM; in test [2], 3 to 50 µM. In the same order, the values of `FC(F)(F)c1cccc(Nc2nccn3nc(Nc4ccccc4)nc23)c1` [Example C76, N^2-Phenyl-N^8-(3-trifluoromethyl-phenyl)-[1,2,4]triazolo[1,5-a]pyrazine-2,8-diamine] are 3 to 50 µM and 3 to 50 µM.

Take `Cn1ccnc1Sc1ccc(Nc2nc3c(Cl)nccn3n2)cc1Cl` [Example B6, [3-Chloro-4-(1-methyl-1H-imidazol-2-ylsulfanyl)-phenyl]-(8-chloro-[1,2,4]triazolo[1,5-a]pyrazin-2-yl)-amine]: the IC50 in test [1] and in test [2] was 3 to 50 µM throughout. With `Cc1cc(C)cc(Nc2nc3c(Nc4ccc5c(n4)NC(=O)C(C)(C)O5)nccn3n2)c1` [Example C60, 6-[2-(3,5-Dimethyl-phenylamino)-[1,2,4]triazolo[1,5-a]pyrazin-8-ylamino]-2,2-dimethyl-4H-pyrido[3,2-b][1,4]oxazin-3-one], the IC50 in test [2] lay within 3 to 50 µM. In test [2], `Cc1cccc(Nc2nccn3nc(Nc4ccc5cnn(Cc6ccccc6)c5c4)nc23)c1` [Example C84, N^2-(1-Benzyl-1H-indazol-6-yl)-N^8-m-tolyl-[1,2,4]triazolo[1,5-a]pyrazine-2,8-diamine] had an IC50 of 3 to 50 µM. `c1ccc(Cn2ncc3ccc(Nc4nccn5nc(Nc6ccccc6)nc45)cc32)cc1` [Example C75, N^8-(1-Benzyl-1H-indazol-6-yl)-N^2-phenyl-[1,2,4]triazolo[1,5-a]pyrazine-2,8-diamine]: the half-inhibitory concentration (IC50) in test [2] is 3 to 50 µM.
